Each structure is given as a SMILES string. Where a name gives a salt, the structure may show the parent alone.

As to `Nc1cccc(-c2ccc(CCN3CCN(CCc4ccccc4)CC3)cc2OC2CCCC2)n1` (as salt: hydrochloride), the melting point was > 200 °C.

As to `CC(C)Oc1cc(C(O)CN2CCN(CCc3ccccc3)CC2)ccc1-c1cccc(N)n1` (centres unmarked) (as salt: hydrochloride), the melting point is 148 to 165 °C.

Broadly, the melting point is the temperature of the solid-liquid transition.
